# Data published in PubChem BioAssay AID1918949 (Molecular Pharmacology Branch, DTP, NCI, 2023).
# Where “and” joins values, the source holds several entries; their conditions need not be identical. Identical values can stand only once.
# Test system: K24384-001-R-PDC complex spheroid viability
# Test: Anticancer human tumor K24384-001-R-PDC patient-derived pancreatic adenocarcinoma cell line growth inhibition
# Details: for viability, T/C: stronger effect = lower value
# Description: Multicellular complex tumor spheroid response to LSD1 Inhibitor Iadademstat in combination with a variety of drugs and investigational agents in selected tumor cell lines
# The current study was undertaken to assess response to LSD1 inhibitors in combination with standard-of-care drugs and investigational agents in solid tumor complex spheroid models as well as in the K-562 leukemia. Complex spheroids include a stromal component modeled by human endothelial cells (HUVEC) and fibroblasts modeled by human mesenchymal stem cells (MSCs). The concentration ranges selected for each drug and investigational agent were based upon clinically achievable concentrations if the clinical Cmax of the agent was known.
# Compounds. The drugs and investigational agents used in this study are listed on Table 1. All of the agents used, including staurosporine (NSC755774) and gemcitabine (NSC613327), were obtained from the Developmental Therapeutics Program, NCI. FDA-approved anticancer drugs are available from the NCI at http://dtp.nci.nih.gov/branches/dscb/oncology_drugset_explanation.html. Drugs and investigational agents were >95% pure by proton nuclear magnetic resonance (NMR) and liquid chromatography/mass spectrometry (LC/MS). Stock solutions were prepared at 400x in DMSO, stored at -70 degrees C, and diluted in fresh medium prior to their use. The final concentration of DMSO in cell culture wells never exceeded 0.25% (v/v). The FDA-approved anticancer drug set is available from the Developmental Therapeutics Program at https://dtp.cancer.gov/organization/dscb/obtaining/available_plates.htm. All drugs and investigational agents were tested over a range starting from a high concentration at or near the clinical Cmax and decreasing in half-log increments. If the clinical Cmax for an agent had not been determined, the highest concentration tested was 10 microM.
# Cell Lines. The patient-derived cancer cell (PDC) lines: 292921-168-R-J2-PDC, K24384-001-R-PDC, and 521955-158-R2-J5-PDC pancreatic carcinomas, 556581-035-R-J1 ovarian carcinoma, 324938-238-R-J1-PDC, 855422-203-R-J1-PDC and 883617-216-R-J1-PDC urothelial bladder carcinomas, 743489-274-T-PDC renal cell carcinoma, 138582-R-J1 Merkel cell tumor, K60290-347-R-J1 and K57222-313-R-J1-PDC glioblastomas, 653999-131-R-J2-PDC, LG0703-F948-PDC, and 349418-098-R-PDC non-small cell lung carcinomas, 885512-296-R-J2-PDC, 171881-019-R-J1-PDC breast carcinomas and 186277-243-T-J2-PDC and 233499-124-R-J2-PDC colon carcinomas were obtained from the NCI Patient-Derived Models Repository (PDMR, https://pdmr.cancer.gov). The established cell lines NCI/ADR-RES (RRID:CVCL_14520 and OVCAR-5 (RRID:CVCL_1628) ovarian carcinomas, 786-O (RRID:CVCL_1051) and A498 (RRID:CVCL_A498) renal cell carcinoma, NCI-H211 (ATCC, cat. CRL-5824; RRID:CVCL_1529), NCI-H196 (ATCC, cat. CRL-5823, RRID:CVCL_1509), SW 1271 (ATCC, cat. CRL-2177, RRID:CVCL_1716) and NCI-H1876 (ATCC, cat. CRL-5902, RRID:CVCL_1503) small cell lung carcinomas, MDA-MB-231 (RRID:CVCL_0062) and MDA-MB-468 (RRID:CVCL_0419)breast carcinomas (10-12). Pooled donor human umbilical vein endothelial cells (HUVEC, Lonza, cat. CC-2519) and human mesenchymal stem cells (hMSC, Lonza, cat. PT-2501) were purchased from Lonza (Walkersville, MD).
# Cell Culture. All cells were maintained in an incubator at 37 degrees C and 5% CO2 with 95% humidity. The PDC lines were cultured according to standard operating procedures established by the NCI PDMR (https://pdmr.cancer.gov). Briefly all PDCs were thawed and cultured in Matrigel-coated flasks prepared with a working solution of 1X Ham's F-12 nutrient mix, without supplementation (Invitrogen, Waltham, MA, cat. 11765054), 100 U/mL penicillin-streptomycin (Invitrogen, cat. 15140122), and 2.5% Matrigel (Corning Inc., Corning, NY, cat. 354248) for the first three passages. […]
# 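Further: spheroids exposed to agents for seven days before luminescence viability reading.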
# 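Wherever viability, T/C is given: 100% = DMSO vehicle control viability.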
SMILES,IC50 (curve of compound),"viability, T/C (compound 0.0316 µM)","viability, T/C (compound 0.1 µM)","viability, T/C (compound 0.316 µM)","viability, T/C (compound 1 µM)","viability, T/C (compound 0.00949 µM)","viability, T/C (compound 0.03 µM)","viability, T/C (compound 0.0949 µM)","viability, T/C (compound 0.3 µM)",other results
COc1ccc([C@@H](O)c2cc(-c3ncnc4cc(N5CCOCC5)ccc34)c(F)cc2Cl)nn1,2070 nM and 2110 nM,102% and 111%,94.1% and 102%,94.3% and 82.1%,68.3% and 63.3%,,,,,"viability, T/C (compound 3.16 µM): 39.1% and 44.5%; viability, T/C (compound 10 µM): 15.3% and 16.4%"
Cn1ncnc1C1c2n[nH]c(=O)c3cc(F)cc(c23)NC1c1ccc(F)cc1 (centres undefined),> 100 nM,90.6% and 95.1%,80.4% and 76.9%,,,,,,,"viability, T/C (compound 0.000316 µM): 108% and 99.6%; viability, T/C (compound 0.001 µM): 105% and 115%; viability, T/C (compound 0.00316 µM): 87.1% and 102%; viability, T/C (compound 0.01 µM): 93.5% and 95%"
NC1CC1c1ccc(-c2cccc(O)c2)cc1 (centres undefined),,,108%,,,,,,,"IC50 (compound alone, run of 02/21/2022): > 10000 nM"
NC1CCC(NC2CC2c2ccccc2)CC1 (centres undefined),,,,83.6% and 74.8%,,,,,,"IC50 (compound alone, run of 02/15/2022): > 10000 nM"
Nc1ccn(C2OC(CO)C(O)C2(F)F)c(=O)n1 (centres undefined),62.5 nM and 45.8 nM,,,,,73% and 73.2%,60.7% and 53.4%,44% and 42.3%,33.9% and 28.2%,"viability, T/C (compound 0.000949 µM): 97.6%; viability, T/C (compound 0.003 µM): 89% and 86.8%"
Nc1ncn(C2CC(O)C(CO)S2)c(=O)n1 (centres undefined),> 300 nM,,,,,96.3% and 85.4%,83.3% and 89.3%,81.3% and 69.1%,55.9% and 56.2%,"viability, T/C (compound 0.000949 µM): 93.1% and 95.2%; viability, T/C (compound 0.003 µM): 96.3% and 88.6%"
O=C(C=Cn1cnc(-c2cc(C(F)(F)F)cc(C(F)(F)F)c2)n1)NNc1cnccn1,45.2 nM and 32.6 nM,60.1% and 51.8%,35.2% and 28.2%,29.8% and 27.7%,19.4% and 19.7%,,,,,"viability, T/C (compound 0.00316 µM): 74% and 75.6%; viability, T/C (compound 0.01 µM): 61.5% and 68%"

# Now from value to compound, other results behind:
IC50 (curve of compound),SMILES,"viability, T/C (compound 0.0316 µM)","viability, T/C (compound 0.1 µM)","viability, T/C (compound 0.316 µM)","viability, T/C (compound 1 µM)","viability, T/C (compound 0.00949 µM)","viability, T/C (compound 0.03 µM)","viability, T/C (compound 0.0949 µM)","viability, T/C (compound 0.3 µM)",other results
338 nM and 362 nM,NS(=O)(=O)OCC1CC(n2ccc3c(NC4CCc5ccccc54)ncnc32)CC1O (centres undefined),,,,,98.5% and 116%,123% and 143%,109% and 126%,52.2% and 53.9%,"viability, T/C (compound 0.949 µM): 34.3% and 34.6%; viability, T/C (compound 3 µM): 19.9% and 22.4%"
438 nM and 432 nM,Nc1ccccc1NC(=O)c1ccc(CNC(=O)OCc2cccnc2)cc1,,,,,95.6% and 102%,102% and 108%,89.1% and 128%,69.4% and 70.9%,"viability, T/C (compound 0.949 µM): 11.8% and 9.62%; viability, T/C (compound 3 µM): 0.21% and 0.26%"
> 1000 nM,Nc1ncn(C2CC(O)C(CO)O2)c(=O)n1 (centres undefined),93% and 100%,84.2% and 77.6%,75.6% and 75.5%,75% and 87.2%,,,,,"viability, T/C (compound 0.00316 µM): 98.6% and 96.8%; viability, T/C (compound 0.01 µM): 88.9% and 94.9%"
250 nM and 268 nM,O=C(C=Cc1cccc(S(=O)(=O)Nc2ccccc2)c1)NO,,,,,120% and 101%,127% and 112%,114% and 105%,38% and 43.9%,"viability, T/C (compound 0.949 µM): 4.5% and 5.62%; viability, T/C (compound 3 µM): 0.23% and 0.24%"
> 10000 nM,O=C(c1cc(Cc2n[nH]c(=O)c3ccccc23)ccc1F)N1CCN(C(=O)C2CC2)CC1,104% and 94.8%,97.3% and 91.9%,91% and 88.9%,85.5% and 81.4%,,,,,"viability, T/C (compound 3.16 µM): 82.9% and 67.7%; viability, T/C (compound 10 µM): 84.4% and 70.1%"
